Entries after “also recorded” stand apart in the source; their conditions may differ. Like-named read-outs stand apart in the source and are kept apart here.
What was measured:
Ishikawa plus cells = assay: Illumina global gene expression profiling in Ishikawa plus cells after 24 h EAC treatment (ANOVA, correlation, K-Means clustering); type: cell-based, human
Method: Cells were routinely maintained in DMEM/F12 with L-Glutamine and 15 mM Hepes supplemented with 10% (v/v) FBS, 1% (v/v) penicillin (10 kU/ml)-streptomycin (10 mg/ml) solution, 0.1% (v/v) Gentamicin (50 mg/ml) and 1 mM sodium pyruvate at 37° C. and 5% CO2 in culture flasks. 5×10^5 cells were seeded onto 6-well plates in phenol-red free DMEM/F12 with L-Glutamine and 15 mM Hepes containing 10% (v/v) dextran-coated charcoal treated FBS, sodium pyruvate and antibiotics.
All experiments were performed three times with cells of passages 3-25.
After a 24 h treatment period cells were rinsed with PBS (Gibco Invitrogen, Karlsruhe, Germany), harvested and total RNA was extracted using the RNeasy Mini Kit (QIAGEN, Hilden, Germany) as described by the manufacturer, including the QIAshredder spin column procedure and on-column RNase-free DNase digestion. RNA was eluted with 40 μl of RNA-Storage solution (Ambion, Darmstadt, Germany). RNA quality control and quantification was determined using a NanoDrop® spectrophotometer (Kisker, Steinfurt, Germany) and 2100 Agilent Bio-Analyzer (Agilent Technologies, Waldbronn, Germany). Only RNA with a quality ratio A260/A280 between 1.9 and 2.1 and no evidence of peak degradation (18s/28s) was used.
Gene expression analysis was executed using Illumina Sentrix® HumanRef-8 V2 BeadChip Arrays (Illumina Inc., San Diego, Calif., USA) allowing the analysis of ˜23,000 transcripts. […] Instead of column cleanup, the bead-based Agencourt® RNAcIean™ system (Beckman Coulter, Krefeld, Germany) was applied to purify cDNA and cRNA. cRNA quantity was measured spectrophotometrically (NanoDrop®) and the 2100 Agilent Bio-Analyzer was used for quality assessment.
Seven hundred fifty nanograms of amplified biotinylated cRNA were hybridized onto the Illumina Sentrix® BeadChip in a Hybridization Cartridge under humidified conditions for 20 h at 58° C. (Hybridization oven, Illumina Inc., San Diego, Calif., USA). The chips were then washed, stained for 10 minutes with 1 μg/ml streptavidin-conjugated Cy3 (Amersham Biosciences, Buckinghamshire, UK) and finally dried by centrifugation according to the protocol provided.
Data were uploaded into Genedata's Expressionist® Analyst software (Genedata AG, Basel, Switzerland) for data normalization and statistical analysis. Data were normalized using Lowess (Locally Weighted Linear Regression) to offset non-biological differences (systematic variation) between the samples and arrays. After normalization fold-regulations for each individual compound treatment were calculated. The global gene set was reduced by filtering any signal intensity<200 (background level) to reduce error rates of multiple testing during further analysis.
Thus, only genes with a p-value and BH-Q-value less than 0.01 were accepted as significant.
For selection of characteristic estrogenicity marker genes, ANOVA was applied to the tested EACs against the vehicle controls. Only genes having a p-value and BH-Q-value less than 0.01 were accepted as significant.

ERα = biological target: T1, ERα (Homo sapiens, UniProt P03372); conditions: consensus ERE reporter; used as low dose level; read-out: compound concentration causing a half maximal activation of the reporter gene (EC50); cited from earlier work
T1 sequence (P03372 1-595): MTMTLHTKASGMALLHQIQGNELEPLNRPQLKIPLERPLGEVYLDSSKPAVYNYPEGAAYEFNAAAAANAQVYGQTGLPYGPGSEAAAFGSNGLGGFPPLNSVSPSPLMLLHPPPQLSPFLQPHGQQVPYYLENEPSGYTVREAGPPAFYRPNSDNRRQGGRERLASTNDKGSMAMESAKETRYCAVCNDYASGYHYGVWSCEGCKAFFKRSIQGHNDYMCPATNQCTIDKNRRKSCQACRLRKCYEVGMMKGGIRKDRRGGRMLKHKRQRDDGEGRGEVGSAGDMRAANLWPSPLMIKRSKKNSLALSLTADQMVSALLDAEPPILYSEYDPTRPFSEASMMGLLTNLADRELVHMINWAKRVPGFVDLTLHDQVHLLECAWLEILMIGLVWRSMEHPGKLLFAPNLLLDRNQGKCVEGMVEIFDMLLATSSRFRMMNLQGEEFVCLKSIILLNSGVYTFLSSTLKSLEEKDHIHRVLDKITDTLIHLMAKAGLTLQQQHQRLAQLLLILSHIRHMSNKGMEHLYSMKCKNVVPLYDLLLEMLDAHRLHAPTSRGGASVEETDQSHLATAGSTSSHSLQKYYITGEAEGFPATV

[1] = Pearson correlation on significantly regulated genes, 24 h, dose not specified
[2] = clusters 3 and 4, same direction as ICI, 24 h
[3] = K-Means clustering, p-value/BH-Q-value<0.01, 24 h
[4] = Pearson correlation, 24 h, high dose
[5] = Pearson correlation, 24 h, low dose

## CC(C)(c1ccc(O)cc1)c1ccc(O)cc1 [BPA, Bisphenol A]
Ishikawa plus cells; 24 h
  share of ER-dependent regulated genes (clusters 1 and 2) also regulated in the same direction after DES treatment: Eighty
Ishikawa plus cells; [1]
  correlation of gene expression compared with DES: low positive correlation
  correlation of gene expression to ICI: high positive correlation; also recorded: high correlations; also recorded: good correlation
Ishikawa plus cells; [2]
  anti-estrogen-like gene regulation, share of significantly regulated genes: 86%

## Clc1ccc(C(c2ccccc2Cl)C(Cl)(Cl)Cl)cc1 (stereo not drawn) [DDT, o,p′-Dichlordiphenyltrichlorethane]
Ishikawa plus cells
  anti-estrogen-like gene regulation, share of significantly regulated genes: 85%
  correlation of gene expression compared with DES: low positive correlation
  correlation of gene expression to ICI: high positive correlation; also recorded: high correlations; also recorded: good correlation
  share of ER-dependent regulated genes (clusters 1 and 2) also regulated in the same direction after DES treatment: 72%

## CC/C(=C(/CC)c1ccc(O)cc1)c1ccc(O)cc1 [DES, Diethylstilbestrol]
Ishikawa plus cells; 24 h, dose not specified
  kind of regulated genes identified by K-Means clustering: only genes with ER-dependent expression profiles; also recorded: Only genes with ER-dependent regulation profiles
Ishikawa plus cells; [3]
  number of down-regulated genes with ER-dependent expression profiles: 62
  number of up-regulated genes with ER-dependent expression profiles: 193
Ishikawa plus cells; [1]
  correlation of gene expression to ICI: negatively correlated

## O=c1c(-c2ccc(O)cc2)coc2cc(O)cc(O)c12 [GEN, Genistein]
Ishikawa plus cells; 24 h
  doses at which anti-estrogenic gene regulation was displayed: only at low doses
  share of ER-dependent regulated genes (clusters 1 and 2) also regulated in the same direction after DES treatment: Approximately 66%
Ishikawa plus cells; [1]
  correlation of gene expression to ICI: good correlation
Ishikawa plus cells; [4]
  correlation of gene expression compared with DES: medium to high correlations
  similarity of gene expression with ICI: little similarity
Ishikawa plus cells; [5]
  correlation of gene expression compared with DES: low positive correlation
  correlation of gene expression to ICI: high positive correlation; also recorded: high correlations
Ishikawa plus cells; high dose, 24 h
  kind of regulated genes identified by K-Means clustering: only ER-dependent regulated genes were identified; also recorded: Only genes with ER-dependent regulation profiles
Ishikawa plus cells; low dose, 24 h
  share of low dose deregulated genes similarly regulated by ICI (clusters 5 and 6): approximately 86%

## C[C@]12CC[C@@H]3c4ccc(O)cc4C[C@@H](CCCCCCCCC[S+]([O-])CCCC(F)(F)C(F)(F)F)[C@H]3[C@@H]1CC[C@@H]2O (stereo partly drawn) [ICI, ICI 182,780]
Ishikawa plus cells; ICI 100 nM alone and ICI/compound combination, 24 h
  regulation of the 87 marker genes: Most genes showed a weaker regulation score or were diametrically regulated

## Oc1ccc(C=Cc2cc(O)cc(O)c2)cc1 [RESV, Resveratrol]
Ishikawa plus cells; 24 h
  estrogen-like gene expression, share of significantly regulated genes: 48%
  portion of the putative estrogenic marker genes regulated unidirectional to ICI: one third
  share of ER-dependent regulated genes (clusters 1 and 2) also regulated in the same direction after DES treatment: 6%
Ishikawa plus cells; [1]
  correlation of gene expression compared with DES: no correlation
  correlation of gene expression to ICI: high positive correlation
Ishikawa plus cells; [2]
  anti-estrogen-like gene regulation, share of significantly regulated genes: 52%
ERα
  EC50: 7.5 µM

## C[C@H]1CCCC(=O)CCC/C=C/c2cc(O)cc(O)c2C(=O)O1 [ZEA, Zearalenone]
Ishikawa plus cells; 24 h
  doses at which anti-estrogenic gene regulation was displayed: only at low doses
  share of ER-dependent regulated genes (clusters 1 and 2) also regulated in the same direction after DES treatment: Approximately 66%
Ishikawa plus cells; [1]
  correlation of gene expression to ICI: good correlation
Ishikawa plus cells; [4]
  correlation of gene expression compared with DES: medium to high correlations
  similarity of gene expression with ICI: little similarity
Ishikawa plus cells; [5]
  correlation of gene expression compared with DES: low positive correlation
  correlation of gene expression to ICI: high positive correlation; also recorded: high correlations
Ishikawa plus cells; high dose, 24 h
  kind of regulated genes identified by K-Means clustering: only ER-dependent regulated genes were identified; also recorded: Only genes with ER-dependent regulation profiles
Ishikawa plus cells; low dose, 24 h
  share of low dose deregulated genes similarly regulated by ICI (clusters 5 and 6): ~91%
ERα
  EC50: 0.0025 µM
